Reference: patent US20250361230A1, “LATS Inhibitors and Uses Thereof” (The USA, as Represented by the Secretary, Dept. of Heath …, priority 2022, published 2025)

Legend:
[1] = target: AKT (Homo sapiens, UniProt P31749); experiment: RBC HotSpot kinase assay (33P-ATP, P81 filter-binding), AKT; assay type: biochemical; conditions: biochemical kinase inhibition; read-out: AKT IC50
How it was run: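 IC50 in nM was derived from 10-point, single-replicate titrations. Read-out was radiometric P81 filter binding following a 2 h room-temperature reaction with 33P-ATP, after 20 min compound preincubation.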

[2] = target: T1, AKT Kinase-NanoLuc fusion in HEK-293 cells (Homo sapiens, UniProt P31749); experiment: NanoBRET target engagement assay in transfected HEK-293 cells, AKT; assay type: cell-based; conditions: cellular; read-out: AKT (Cellular) IC50
T1 construct: host or cells: HEK-293
How it was run: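 HEK-293 cells transiently transfected with kinase-NanoLuc fusion plasmid for 22-24 h, then incubated with compound and NanoBRET tracer for 1 hour at 37° C. After substrate plus extracellular NanoLuc inhibitor addition, 460 and 600 nm emissions read; no-tracer-corrected BRET ratio used to derive IC50 values.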

T1 sequence (P31749 whole entry, the tested form may be a part): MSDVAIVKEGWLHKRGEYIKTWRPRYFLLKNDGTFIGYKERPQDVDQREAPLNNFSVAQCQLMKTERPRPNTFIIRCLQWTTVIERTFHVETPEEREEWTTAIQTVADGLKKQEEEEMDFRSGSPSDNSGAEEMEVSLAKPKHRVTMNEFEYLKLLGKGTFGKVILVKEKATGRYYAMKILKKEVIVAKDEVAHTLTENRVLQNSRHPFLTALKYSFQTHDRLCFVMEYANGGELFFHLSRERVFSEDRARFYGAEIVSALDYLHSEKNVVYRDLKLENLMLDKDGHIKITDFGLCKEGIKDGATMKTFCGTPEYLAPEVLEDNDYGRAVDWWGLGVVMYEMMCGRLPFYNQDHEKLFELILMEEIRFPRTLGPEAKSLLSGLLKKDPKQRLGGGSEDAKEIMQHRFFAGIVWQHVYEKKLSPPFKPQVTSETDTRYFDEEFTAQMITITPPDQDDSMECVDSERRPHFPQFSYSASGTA
AKT, sequence (P31749 whole entry): as the sequence (P31749 whole entry, the tested form may be a part) above

Cc1cc(-c2ccnc3[nH]cc(C#N)c23)ccc1[C@@]1(O)[C@H](C)CN(C2CCS(=O)(=O)CC2)C[C@@H]1C [Compound 2003, 4-(4-((3S,4s,5R)-1-(1,1-dioxidotetrahydro-2H-thiopyran-4-yl)-4-hydroxy-3,5-dimethylpiperidin-4-yl)-3-methylphenyl)-1H-pyrrolo[2,3-b]pyridine-3-carbonitrile]
IC50 [1]: 0.0121 µM | IC50 [2]: 28.5 µM
